This passage reports Ki results from BindingDB's records for doi:10.1021/jm00384a019 (1987).

For this experiment, the target named is DNA polymerase alpha (Cricetulus griseus). The experiment in a line: Compound was evaluated for the concentration which gives half-maximal inhibition of Chinese Hamster Ovary DNA polymerase alpha.

As for `CCCCc1ccc(Nc2nc(Cl)c3[nH]cnc3n2)cc1` [(4-Butyl-phenyl)-(6-chloro-9H-purin-2-yl)-amine], the affinity, expressed as Ki, was 2600 nM.
Under `CCCCc1ccc(Nc2nc(OC)c3[nH]cnc3n2)cc1` [(4-Butyl-phenyl)-(6-methoxy-9H-purin-2-yl)-amine] stands 1400 nM.
In the case of `CCCCc1ccc(Nc2nc(SC)c3[nH]cnc3n2)cc1` [(4-Butyl-phenyl)-(6-methylsulfanyl-9H-purin-2-yl)-amine], the affinity, expressed as Ki, was 1000 nM.
Under `CCCCc1ccc(Nc2ncc3[nH]cnc3n2)cc1` [(4-Butyl-phenyl)-(9H-purin-2-yl)-amine] stands 5000 nM; under `CCCCc1ccc(Nc2nc(N)c3[nH]cnc3n2)cc1` [N*2*-(4-Butyl-phenyl)-9H-purine-2,6-diamine], 14400 nM.
